Like-named read-outs stand apart in the source and are kept apart here.

Data set [1] deals with E. coli. Put plainly: In vivo study of residual antimicrobial efficacy on finger taps (Example 7). The settings on record: finger taps inoculated with E. coli 30 min (controls) or 30 min, 1 hr, 2 hrs (test article) post application. The protocol: • 1) Wash hands with nonmedicated soap to remove surface dirt and oil, dried, and finally decontaminate with 70% isopropyl alcohol. Allow to air dry. • 2) Apply test article (Sanitizer A containing 5% CAGE) and controls (70% Alcohol and DI Water or 0.9% Sterile Saline Solution) on each finger tap to cover it completely. Let it dry. • 3) Inoculate the finger taps #1-3 with 10 μL of high-concentrated suspension of E. coli at 30 min of post-application. • 4) Wait for 60 sec (contact time) • 5) Tap the finger on the TSA agar plate and transfer plates #1-3 into the incubator set at 37° C. • 6) Apply 10 μL of inoculum on Finger #4 at 1 hr. of post application. • 7) Wait for 60 sec and tap the finger on the TSA agar plate. Transfer plate into the incubator set at 37° C. • 8) Apply 10 μL of inoculum on Finger #5 at 2 hrs of post application. • 9) Wait for 60 sec and tap the finger on the TSA agar plate. Transfer plate into the incubator set at 37° C. • 10) Observe bacterial growth after 24 hrs in incubator.

The conditions of data set [2]: in vivo. The protocol: Distilled water was used as a negative control. The patches were removed by the subjects after 24 h and a new one was applied by the site staff at the same exact site at the next visit. The subjects reported to the site for a total of 9 visits, 3 each week. During each visit the application area was observed by the study investigator and a new patch was applied.
This cosmetic study was approved by an IRB and conducted by AMA Laboratories Inc. in New York. […] The application area was occluded with hypoallergenic tape. The subjects were required to keep the tape for 24 h. At each visit, the application site was evaluated for skin irritation on a 5-point scale (0-4). […] The subjects were then evaluated for any skin reactions after 24 and 48 h.

Data set [3] deals with human Coronavirus strain 229E (hCoV229E) (ATCC #VR-740). The note with it: for TCID10 (log10): 5% w/w in purified water, virus control 6.50; for CPE (cytopathic/cytotoxic effect), four replicate wells: 5% w/w.

Consider `CCO` [70% Ethanol, Ethanol], for which the “microbial growth after 24 hrs at 37° C.” value in data set [1] is “Microbial growth was observed”.

On to choline geranate [CG-101], for which the “other adverse events reported in the study” value in data set [2] is given as “no other adverse events”. The sensitization response result in data set [2] is recorded as “did not create any sensitization response”. The “subjects showing any skin reactions in the first 3 visits (7-days)” value in data set [2] is reported as “None”. The “subjects that did not display any irritation throughout the entire 21-day study” value in data set [2] is listed as 43 subjects. Besides, the “subjects that experienced some skin irritation” value in data set [2] was 8 subjects. Also, the “TCID10 (log10)” value in data set [3] (5 minutes exposure) and in data set [3] (10 minutes exposure) was at most 2.50 log10 throughout. Also, the “CPE (cytopathic/cytotoxic effect), four replicate wells” value in data set [3] (5 minutes exposure, dilution (−Log10) −3) worked out at 0000; in data set [3] (5 minutes exposure, dilution (−Log10) −4), 0000; in data set [3] (5 minutes exposure, dilution (−Log10) −5) it was 0000; in data set [3] (5 minutes exposure, dilution (−Log10) −6), 0000; in data set [3] (5 minutes exposure, dilution (−Log10) −7) it was 0000; in data set [3] (10 minutes exposure, dilution (−Log10) −3), 0000. Further, the “CPE (cytopathic/cytotoxic effect), four replicate wells” value is 0000 in data set [3] (10 minutes exposure, dilution (−Log10) −4); 0000 in data set [3] (10 minutes exposure, dilution (−Log10) −5); 0000 in data set [3] (10 minutes exposure, dilution (−Log10) −6); 0000 in data set [3] (10 minutes exposure, dilution (−Log10) −7).

For the origin of these results see patent publication US12678384B2, “Sanitizing compositions containing ionic liquid” (CAGE BIO INC., priority 2020, dated 2026).
